From US9738634B2, “Heterocyclic amide compound and herbicide” (SYNGENTA PARTICIPATIONS AG, priority 2013, dated 2017)

Experiments:
Type in all cases: in vivo
barnyard grass [1] = assay: Test Example 1: weedkilling efficacy, preemergent weed treatment in the submerged state; A: barnyard grass; settings: treatment dosage 252 g/ha
Outline: (§1)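 Pre-emergence application onto floodwater (4 cm, alluvial soil) on the day of sowing, dose expressed as g/ha from diluted emulsion formulation. Weeds sown with 2.5-leaf transplanted rice as crop; plants held at 25–30 °C in greenhouse and scored against assessment criteria after 3 weeks.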

bulrush [2] = assay: Test Example 1: weedkilling efficacy, preemergent weed treatment in the submerged state; B: bulrush; settings: treatment dosage 252 g/ha
Outline: as §1

oval-leafed pondweed [3] = assay: Test Example 1: weedkilling efficacy, preemergent weed treatment in the submerged state; C: oval-leafed pondweed; settings: treatment dosage 252 g/ha
Outline: as §1

transplanted rice = assay: Test Example 1: preemergent weed treatment in the submerged state, effect on crop; a: transplanted rice; settings: treatment dosage 252 g/ha
Outline: as §1

barnyard grass [4] = assay: Test Example 2: weedkilling efficacy, growth period weed treatment in the submerged state; A: barnyard grass; settings: treatment dosage 252 g/ha
Outline: (§2)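 Weeds treated at the 1-2 leaf stage by application of diluted emulsion onto floodwater (4 cm depth, alluvial soil) at specified g/ha. Grown in greenhouse at 25 to 30° C; herbicidal effect rated three weeks after treatment.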

bulrush [5] = assay: Test Example 2: weedkilling efficacy, growth period weed treatment in the submerged state; B: bulrush; settings: treatment dosage 252 g/ha
Outline: as §2

oval-leafed pondweed [6] = assay: Test Example 2: weedkilling efficacy, growth period weed treatment in the submerged state; C: oval-leafed pondweed; settings: treatment dosage 252 g/ha
Outline: as §2

crabgrass [7] = assay: Test Example 3: weedkilling efficacy through soil treatment; D: crabgrass; settings: treatment dosage 315 g/ha
Outline: (§3)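 Crop and weed responses were judged three weeks after a uniform surface spray of the water-diluted emulsion at the given g/ha rate. Seeds sat beneath about 1.5 cm of sterilized diluvial soil, and boxes stood in a greenhouse at 25 to 30° C.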

green foxtail [8] = assay: Test Example 3: weedkilling efficacy through soil treatment; E: green foxtail; settings: treatment dosage 315 g/ha
Outline: as §3

wild oat [9] = assay: Test Example 3: weedkilling efficacy through soil treatment; G: wild oat; settings: treatment dosage 315 g/ha
Outline: as §3

black-grass [10] = assay: Test Example 3: weedkilling efficacy through soil treatment; H: black-grass; settings: treatment dosage 315 g/ha
Outline: as §3

Italian ryegrass [11] = assay: Test Example 3: weedkilling efficacy through soil treatment; I: Italian ryegrass; settings: treatment dosage 315 g/ha
Outline: as §3

Indian mallow [12] = assay: Test Example 3: weedkilling efficacy through soil treatment; K: Indian mallow; settings: treatment dosage 315 g/ha
Outline: as §3

redroot pigweed [13] = assay: Test Example 3: weedkilling efficacy through soil treatment; L: redroot pigweed; settings: treatment dosage 315 g/ha
Outline: as §3

fig-leafed goosefoot [14] = assay: Test Example 3: weedkilling efficacy through soil treatment; M: fig-leafed goosefoot; settings: treatment dosage 315 g/ha
Outline: as §3

chickweed [15] = assay: Test Example 3: weedkilling efficacy through soil treatment; N: chickweed; settings: treatment dosage 315 g/ha
Outline: as §3

catchweed [16] = assay: Test Example 3: weedkilling efficacy through soil treatment; O: catchweed; settings: treatment dosage 315 g/ha
Outline: as §3

birds-eye speedwell [17] = assay: Test Example 3: weedkilling efficacy through soil treatment; p: birds-eye speedwell; settings: treatment dosage 315 g/ha
Outline: as §3

directly sown rice [18] = assay: Test Example 3: soil treatment, effect on crop; b: directly sown rice; settings: treatment dosage 315 g/ha
Outline: as §3

corn [19] = assay: Test Example 3: soil treatment, effect on crop; c: corn; settings: treatment dosage 315 g/ha
Outline: as §3

soybean [20] = assay: Test Example 3: soil treatment, effect on crop; d: soybean; settings: treatment dosage 315 g/ha
Outline: as §3

wheat [21] = assay: Test Example 3: soil treatment, effect on crop; e: wheat; settings: treatment dosage 315 g/ha
Outline: as §3

beet [22] = assay: Test Example 3: soil treatment, effect on crop; f: beet; settings: treatment dosage 315 g/ha
Outline: as §3

crabgrass [23] = assay: Test Example 4: weedkilling efficacy by foliar treatment; D: crabgrass; settings: treatment dosage 315 g/ha
Outline: (§4)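 Seeds are spot-sown into sterilized diluvial soil and covered with about 1.5 cm of soil. After 14 days' greenhouse growth at 25 to 30° C, plants are sprayed on stems and leaves with diluted emulsion at the stated g/ha rate, then scored at 3 weeks.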

green foxtail [24] = assay: Test Example 4: weedkilling efficacy by foliar treatment; E: green foxtail; settings: treatment dosage 315 g/ha
Outline: as §4

wild oat [25] = assay: Test Example 4: weedkilling efficacy by foliar treatment; G: wild oat; settings: treatment dosage 315 g/ha
Outline: as §4

black-grass [26] = assay: Test Example 4: weedkilling efficacy by foliar treatment; H: black-grass; settings: treatment dosage 315 g/ha
Outline: as §4

Italian ryegrass [27] = assay: Test Example 4: weedkilling efficacy by foliar treatment; I: Italian ryegrass; settings: treatment dosage 315 g/ha
Outline: as §4

Indian mallow [28] = assay: Test Example 4: weedkilling efficacy by foliar treatment; K: Indian mallow; settings: treatment dosage 315 g/ha
Outline: as §4

redroot pigweed [29] = assay: Test Example 4: weedkilling efficacy by foliar treatment; L: redroot pigweed; settings: treatment dosage 315 g/ha
Outline: as §4

fig-leafed goosefoot [30] = assay: Test Example 4: weedkilling efficacy by foliar treatment; M: fig-leafed goosefoot; settings: treatment dosage 315 g/ha
Outline: as §4

chickweed [31] = assay: Test Example 4: weedkilling efficacy by foliar treatment; N: chickweed; settings: treatment dosage 315 g/ha
Outline: as §4

catchweed [32] = assay: Test Example 4: weedkilling efficacy by foliar treatment; O: catchweed; settings: treatment dosage 315 g/ha
Outline: as §4

birds-eye speedwell [33] = assay: Test Example 4: weedkilling efficacy by foliar treatment; p: birds-eye speedwell; settings: treatment dosage 315 g/ha
Outline: as §4

directly sown rice [34] = assay: Test Example 4: foliar treatment, effect on crop; b: directly sown rice; settings: treatment dosage 315 g/ha
Outline: as §4

corn [35] = assay: Test Example 4: foliar treatment, effect on crop; c: corn; settings: treatment dosage 315 g/ha
Outline: as §4

soybean [36] = assay: Test Example 4: foliar treatment, effect on crop; d: soybean; settings: treatment dosage 315 g/ha
Outline: as §4

wheat [37] = assay: Test Example 4: foliar treatment, effect on crop; e: wheat; settings: treatment dosage 315 g/ha
Outline: as §4

beet [38] = assay: Test Example 4: foliar treatment, effect on crop; f: beet; settings: treatment dosage 315 g/ha
Outline: as §4

SMILES: CC1=C(c2cccnc2F)C(=O)N(C(C)(C)C(=O)Nc2cc(Br)ccn2)CO1 [B-2-09]
- A (barnyard grass) weedkilling efficacy grade (barnyard grass [1]): 5 (weed kill ratio 90% or more, (practically complete withering))
- B (bulrush) weedkilling efficacy grade (bulrush [2]): 5 (weed kill ratio 90% or more, (practically complete withering))
- C (oval-leafed pondweed) weedkilling efficacy grade (oval-leafed pondweed [3]): 5 (weed kill ratio 90% or more, (practically complete withering))
- a (transplanted rice) effect on crop grade (transplanted rice): 1 (weed kill ratio 5% or more, less than 20%)
- A (barnyard grass) weedkilling efficacy grade (barnyard grass [4]): 4 (weed kill ratio 70% or more, less than 90%)
- B (bulrush) weedkilling efficacy grade (bulrush [5]): 5 (weed kill ratio 90% or more, (practically complete withering))
- C (oval-leafed pondweed) weedkilling efficacy grade (oval-leafed pondweed [6]): 3 (weed kill ratio 40% or more, less than 70%)
- D (crabgrass) weedkilling efficacy grade (crabgrass [7]): 5 (weed kill ratio 90% or more, (practically complete withering))
- E (green foxtail) weedkilling efficacy grade (green foxtail [8]): 5 (weed kill ratio 90% or more, (practically complete withering))
- G (wild oat) weedkilling efficacy grade (wild oat [9]): 3 (weed kill ratio 40% or more, less than 70%)
- H (black-grass) weedkilling efficacy grade (black-grass [10]): 4 (weed kill ratio 70% or more, less than 90%)
- I (Italian ryegrass) weedkilling efficacy grade (Italian ryegrass [11]): 5 (weed kill ratio 90% or more, (practically complete withering))
- K (Indian mallow) weedkilling efficacy grade (Indian mallow [12]): 0 (weed kill ratio 5% or less (practically no effect))
- L (redroot pigweed) weedkilling efficacy grade (redroot pigweed [13]): 0 (weed kill ratio 5% or less (practically no effect))
- M (fig-leafed goosefoot) weedkilling efficacy grade (fig-leafed goosefoot [14]): 3 (weed kill ratio 40% or more, less than 70%)
- N (chickweed) weedkilling efficacy grade (chickweed [15]): 2 (weed kill ratio 20% or more, less than 40%)
- O (catchweed) weedkilling efficacy grade (catchweed [16]): 3 (weed kill ratio 40% or more, less than 70%)
- P (birds-eye speedwell) weedkilling efficacy grade (birds-eye speedwell [17]): 4 (weed kill ratio 70% or more, less than 90%)
- b (directly sown rice) effect on crop grade (directly sown rice [18]): 3 (weed kill ratio 40% or more, less than 70%)
- c (corn) effect on crop grade (corn [19]): 0 (weed kill ratio 5% or less (practically no effect))
- d (soybean) effect on crop grade (soybean [20]): 0 (weed kill ratio 5% or less (practically no effect))
- e (wheat) effect on crop grade (wheat [21]): 0 (weed kill ratio 5% or less (practically no effect))
- f (beet) effect on crop grade (beet [22]): 1 (weed kill ratio 5% or more, less than 20%)
- D (crabgrass) weedkilling efficacy grade (crabgrass [23]): 5 (weed kill ratio 90% or more, (practically complete withering))
- E (green foxtail) weedkilling efficacy grade (green foxtail [24]): 5 (weed kill ratio 90% or more, (practically complete withering))
- G (wild oat) weedkilling efficacy grade (wild oat [25]): 0 (weed kill ratio 5% or less (practically no effect))
- H (black-grass) weedkilling efficacy grade (black-grass [26]): 4 (weed kill ratio 70% or more, less than 90%)
- I (Italian ryegrass) weedkilling efficacy grade (Italian ryegrass [27]): 4 (weed kill ratio 70% or more, less than 90%)
- K (Indian mallow) weedkilling efficacy grade (Indian mallow [28]): 0 (weed kill ratio 5% or less (practically no effect))
- L (redroot pigweed) weedkilling efficacy grade (redroot pigweed [29]): 0 (weed kill ratio 5% or less (practically no effect))
- M (fig-leafed goosefoot) weedkilling efficacy grade (fig-leafed goosefoot [30]): 4 (weed kill ratio 70% or more, less than 90%)
- N (chickweed) weedkilling efficacy grade (chickweed [31]): 3 (weed kill ratio 40% or more, less than 70%)
- O (catchweed) weedkilling efficacy grade (catchweed [32]): 1 (weed kill ratio 5% or more, less than 20%)
- P (birds-eye speedwell) weedkilling efficacy grade (birds-eye speedwell [33]): 4 (weed kill ratio 70% or more, less than 90%)
- b (directly sown rice) effect on crop grade (directly sown rice [34]): 5 (weed kill ratio 90% or more, (practically complete withering))
- c (corn) effect on crop grade (corn [35]): 0 (weed kill ratio 5% or less (practically no effect))
- d (soybean) effect on crop grade (soybean [36]): 0 (weed kill ratio 5% or less (practically no effect))
- e (wheat) effect on crop grade (wheat [37]): 0 (weed kill ratio 5% or less (practically no effect))
- f (beet) effect on crop grade (beet [38]): 1 (weed kill ratio 5% or more, less than 20%)
